# Reference: patent US12077503B2, “Substituted cyclic amides and their use as herbicides” (FMC CORPORATION, priority 2015, dated 2024)
# Where two headings read alike, the source gives them in different places.
# Key:
# Test in all cases: Test A postemergence
# Format in all cases: in vivo
# [1] = test system: Galium (catchweed bedstraw, Galium aparine); conditions: Galium, post-emergence, 240 h; for pest or weed control at 125 g/ha: 125 g ai/ha; for pest or weed control at 500 g/ha: 500 g ai/ha, 0 to 100 scale, 0 is no effect, 100 is complete control
# Procedure, shortened: (§1)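 Seeded soil received test chemicals as a preemergence directed spray, and seedlings at one to two leaves, 2–10 cm tall, received them postemergence, in a non-phytotoxic, surfactant-containing solvent mixture. Pots were held in a greenhouse for approximately 10 d, then rated for injury from 0, no effect, to 100, complete control.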
# Kochia (Kochia scoparia) = conditions: Bassia scoparia, post-emergence, 240 h; for pest or weed control at 125 g/ha: 125 g ai/ha; for pest or weed control at 500 g/ha: 500 g ai/ha, 0 to 100 scale, 0 is no effect, 100 is complete control
# Procedure, shortened: as §1
# [2] = test system: barnyardgrass (Echinochloa crus-galli); conditions: Echinochloa crus-galli, post-emergence, 240 h; for pest or weed control at 125 g/ha: 125 g ai/ha; for pest or weed control at 500 g/ha: 500 g ai/ha, 0 to 100 scale, 0 is no effect, 100 is complete control
# Procedure, shortened: as §1
# [3] = test system: giant foxtail (Setaria faberii); conditions: Setaria faberi, post-emergence, 240 h; for pest or weed control at 125 g/ha: 125 g ai/ha; for pest or weed control at 500 g/ha: 500 g ai/ha, 0 to 100 scale, 0 is no effect, 100 is complete control
# Procedure, shortened: as §1
# [4] = test system: wheat (Triticum aestivum); conditions: Triticum aestivum, post-emergence, 240 h; for plant injury at 125 g/ha: 125 g ai/ha; for plant injury at 500 g/ha: 500 g ai/ha, 0 to 100 scale, 0 is no effect, 100 is complete control
# Procedure, shortened: as §1
# [5] = postemergence, visual injury rating after approximately 10 d, read-out: Galium plant response rating (0 to 100 scale, 0 no effect, 100 complete control)
# [6] = postemergence, visual injury rating after approximately 10 d, read-out: Kochia plant response rating (0 to 100 scale, 0 no effect, 100 complete control)
# [7] = postemergence, visual injury rating after approximately 10 d, read-out: Barnyardgrass plant response rating (0 to 100 scale, 0 no effect, 100 complete control)
# [8] = postemergence, visual injury rating after approximately 10 d, read-out: Foxtail, Giant plant response rating (0 to 100 scale, 0 no effect, 100 complete control)
# [9] = postemergence, visual injury rating after approximately 10 d, read-out: Wheat plant response rating (0 to 100 scale, 0 no effect, 100 complete control)
# [10] = postemergence, visual injury vs untreated controls after approx. 10 d, 0 = no effect, 100 = complete control, read-out: Galium plant response rating (0 to 100 scale)
# [11] = postemergence, read-out: Galium plant response rating
# [12] = postemergence, visual injury vs untreated controls after approx. 10 d, 0 = no effect, 100 = complete control, read-out: Kochia plant response rating (0 to 100 scale)
# [13] = postemergence, read-out: Kochia plant response rating
# [14] = postemergence, visual injury vs untreated controls after approx. 10 d, 0 = no effect, 100 = complete control, read-out: Barnyardgrass plant response rating (0 to 100 scale)
# [15] = postemergence, read-out: Barnyardgrass plant response rating
# [16] = postemergence, visual injury vs untreated controls after approx. 10 d, 0 = no effect, 100 = complete control, read-out: Foxtail, Giant plant response rating (0 to 100 scale)
# [17] = postemergence, read-out: Foxtail, Giant plant response rating
# [18] = postemergence, visual injury vs untreated controls after approx. 10 d, 0 = no effect, 100 = complete control, read-out: Wheat plant response rating (0 to 100 scale)
# [19] = postemergence, read-out: Wheat plant response rating
# [20] = postemergence, visual injury on 0 to 100 scale (0 no effect, 100 complete control), approx. 10 d, read-out: Galium plant response rating
# [21] = postemergence, visual injury on 0 to 100 scale (0 no effect, 100 complete control), approx. 10 d, read-out: Kochia plant response rating
# [22] = postemergence, visual injury on 0 to 100 scale (0 no effect, 100 complete control), approx. 10 d, read-out: Barnyardgrass plant response rating
# [23] = postemergence, visual injury on 0 to 100 scale (0 no effect, 100 complete control), approx. 10 d, read-out: Foxtail, Giant plant response rating
# [24] = postemergence, visual injury on 0 to 100 scale (0 no effect, 100 complete control), approx. 10 d, read-out: Wheat plant response rating
SMILES,"pest or weed control at 125 g/ha [1, 5] [%]",pest or weed control at 125 g/ha (Kochia (Kochia scoparia); [6]) [%],"pest or weed control at 125 g/ha [2, 7] [%]","pest or weed control at 125 g/ha [3, 8] [%]","plant injury at 125 g/ha [4, 9] [%]",other results
Cc1c(F)cccc1NC(=O)[C@H]1C(=O)NC[C@@H]1c1cccc(C(F)(F)F)c1 [Compound 826],50,30,100,90,60,
CCc1cc([C@H]2CN(C)C(=O)[C@@H]2C(=O)Nc2cccc(F)c2F)cs1 [Compound 1157],,,,,,"pest or weed control at 125 g/ha [1, 10]: 50%; pest or weed control at 500 g/ha [1, 11]: 60%; pest or weed control at 125 g/ha (Kochia (Kochia scoparia); [12]): 0%; pest or weed control at 500 g/ha (Kochia (Kochia scoparia); [13]): 50%; pest or weed control at 125 g/ha [2, 14]: 90%; pest or weed control at 500 g/ha [2, 15]: 90%; pest or weed control at 125 g/ha [3, 16]: 90%; pest or weed control at 500 g/ha [3, 17]: 90%; plant injury at 125 g/ha [4, 18]: 30%; plant injury at 500 g/ha [4, 19]: 70%"
Cc1c(F)ccc([C@H]2CN(C)C(=O)[C@@H]2C(=O)Nc2ccccc2S(C)(=O)=O)c1F [Compound 842],50,30,90,90,30,
Cc1c(F)ccc([C@H]2CN(C)C(=O)[C@@H]2C(=O)Nc2ccc(F)c(F)c2F)c1F [Compound 836],50,50,100,90,40,
Cc1c(F)cccc1NC(=O)[C@H]1C(=O)N(C)C[C@@H]1c1cc(F)c(F)c(F)c1 [Compound 867],30,0,90,80,20,
O=C1NC[C@H](c2ccc3c(c2)CCO3)[C@H]1C(=O)Nc1ccc(F)cc1F [Compound 902],0,0,60,30,0,
O=C1NC[C@H](c2csc(C(F)F)c2)[C@H]1C(=O)Nc1ccccc1F [Compound 1118],,,,,,"pest or weed control at 125 g/ha [1, 20]: 50%; pest or weed control at 500 g/ha [1, 11]: 60%; pest or weed control at 125 g/ha (Kochia (Kochia scoparia); [21]): 0%; pest or weed control at 500 g/ha (Kochia (Kochia scoparia); [13]): 30%; pest or weed control at 125 g/ha [2, 22]: 80%; pest or weed control at 500 g/ha [2, 15]: 90%; pest or weed control at 125 g/ha [3, 23]: 0%; pest or weed control at 500 g/ha [3, 17]: 50%; plant injury at 125 g/ha [4, 24]: 20%; plant injury at 500 g/ha [4, 19]: 20%"
C/C=C/N1C[C@@H](c2cccc(C(F)(F)F)c2)[C@H](C(=O)Nc2ccccc2F)C1=O (racemic) [Compound 1094],,,,,,"pest or weed control at 125 g/ha [1, 20]: 20%; pest or weed control at 500 g/ha [1, 11]: 20%; pest or weed control at 125 g/ha (Kochia (Kochia scoparia); [21]): 0%; pest or weed control at 500 g/ha (Kochia (Kochia scoparia); [13]): 0%; pest or weed control at 125 g/ha [2, 22]: 40%; pest or weed control at 500 g/ha [2, 15]: 80%; pest or weed control at 125 g/ha [3, 23]: 30%; pest or weed control at 500 g/ha [3, 17]: 80%; plant injury at 125 g/ha [4, 24]: 20%; plant injury at 500 g/ha [4, 19]: 30%"
CCOc1ccc([C@H]2CNC(=O)[C@@H]2C(=O)Nc2cccc(F)c2F)cc1 [Compound 907],0,0,50,60,0,
CN1C[C@H](c2cc(F)c(C(F)(F)F)c(F)c2)[C@@H](C(=O)Nc2cccc(F)c2F)C1=O [Compound 898],0,0,80,80,40,
O=C1NC[C@H](c2cc(F)c(C(F)(F)F)c(F)c2)[C@H]1C(=O)Nc1ccc(F)cc1F [Compound 840],50,0,80,90,20,
Cc1cc([C@H]2CN(C)C(=O)[C@@H]2C(=O)Nc2cccc(F)c2F)ccc1Cl [Compound 929],,,,,,"pest or weed control at 125 g/ha ([1]; Postemergence, visual injury after approximately 10 d, 0 to 100 scale where 0 is no effect and 100 is complete control, read-out: Plant response rating, Galium): 50%; pest or weed control at 125 g/ha (Kochia (Kochia scoparia); Postemergence, visual injury after approximately 10 d, 0 to 100 scale where 0 is no effect and 100 is complete control, read-out: Plant response rating, Kochia): 40%; pest or weed control at 125 g/ha ([2]; Postemergence, visual injury after approximately 10 d, 0 to 100 scale where 0 is no effect and 100 is complete control, read-out: Plant response rating, Barnyardgrass): 90%; pest or weed control at 125 g/ha ([3]; Postemergence, visual injury after approximately 10 d, 0 to 100 scale where 0 is no effect and 100 is complete control, read-out: Plant response rating, Foxtail, Giant): 90%; plant injury at 125 g/ha ([4]; Postemergence, visual injury after approximately 10 d, 0 to 100 scale where 0 is no effect and 100 is complete control, read-out: Plant response rating, Wheat): 30%"
Cc1cc(C)cc([C@H]2CN(C)C(=O)[C@@H]2C(=O)Nc2ccccc2C(F)(F)F)c1 [Compound 912],0,0,80,90,20,
CN1C[C@H](c2cccc(F)c2)[C@@H](C(=O)Nc2ccccc2F)C1=O [Compound 822],20,0,90,90,0,
CN1C[C@H](c2csc3ccccc23)[C@@H](C(=O)Nc2cccc(F)c2F)C1=O [Compound 1115],,,,,,"pest or weed control at 125 g/ha [1, 20]: 0%; pest or weed control at 500 g/ha [1, 11]: 30%; pest or weed control at 125 g/ha (Kochia (Kochia scoparia); [21]): 20%; pest or weed control at 500 g/ha (Kochia (Kochia scoparia); [13]): 40%; pest or weed control at 125 g/ha [2, 22]: 80%; pest or weed control at 500 g/ha [2, 15]: 90%; pest or weed control at 125 g/ha [3, 23]: 70%; pest or weed control at 500 g/ha [3, 17]: 90%; plant injury at 125 g/ha [4, 24]: 20%; plant injury at 500 g/ha [4, 19]: 30%"
CN1C[C@H](c2cc(F)cc(F)c2)[C@@H](C(=O)Nc2ccccc2[S@@+](C)[O-])C1=O [Compound 872],50,50,90,80,20,
CN1CC[C@H](c2cccc(C(F)(F)F)c2)[C@@H](C(=O)Nc2cccc(F)c2Cl)C1=O [Compound 1158],,,,,,"pest or weed control at 125 g/ha [1, 10]: 20%; pest or weed control at 500 g/ha [1, 11]: 30%; pest or weed control at 125 g/ha (Kochia (Kochia scoparia); [12]): 0%; pest or weed control at 500 g/ha (Kochia (Kochia scoparia); [13]): 0%; pest or weed control at 125 g/ha [2, 14]: 90%; pest or weed control at 500 g/ha [2, 15]: 90%; pest or weed control at 125 g/ha [3, 16]: 80%; pest or weed control at 500 g/ha [3, 17]: 80%; plant injury at 125 g/ha [4, 18]: 30%; plant injury at 500 g/ha [4, 19]: 50%"
